Molecules are shown by their SMILES.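 Five compound concentrations were applied to cells in 96-well plates for 48 hours; endpoints were derived by simple linear interpolation of the resulting dose-response curve. Definition used: TGI = concentration required for complete inhibition of growth.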

Some test systems named below: TK-10 renal; MOLT-4 leukemia; HCC-2998 colon; CCRF-CEM leukemia; MALME-3M melanoma; MDA-MB-435; SR leukemia; COLO 205 colon; PC-3 prostate; NCI-H460 lung; OVCAR-3 ovarian; SN12C renal; HOP-92 NSCLC; SK-OV-3 ovarian; HL-60(TB) leukemia; LOX IMVI melanoma; U251 CNS; HCT-116 colon; A498 renal.
Common to all, as to assay: NCI anticancer screen, dose series, 48 h

`O=C(NNC1=NCCN1)c1ccco1`: the TGI in the test on TK-10 renal, in the test with MOLT-4 leukemia, with HCC-2998 colon, with CCRF-CEM leukemia, in the test with MALME-3M melanoma and in the test on MDA-MB-435 was over 100 µM throughout. Also, the TGI in the test on SR leukemia, in the test on COLO 205 colon, in the test on PC-3 prostate, in the test on NCI-H460 lung, with OVCAR-3 ovarian and in the test on SN12C renal was over 100 µM in each case. The TGI in the test on HOP-92 NSCLC, with SK-OV-3 ovarian, with HL-60(TB) leukemia, in the test on LOX IMVI melanoma, in the test with U251 CNS and in the test with HCT-116 colon was over 100 µM each time.
With `Cc1ccc(/C=N/Nc2cnccn2)s1`, the TGI in the test with TK-10 renal, in the test with MOLT-4 leukemia, in the test with HCC-2998 colon, in the test with CCRF-CEM leukemia, in the test on MALME-3M melanoma and with MDA-MB-435 was over 100 µM in each case. The TGI with COLO 205 colon, in the test with PC-3 prostate, in the test with OVCAR-3 ovarian, in the test on SN12C renal, in the test with HOP-92 NSCLC and in the test on SK-OV-3 ovarian was over 100 µM each time. Further, the TGI in the test on HL-60(TB) leukemia, with LOX IMVI melanoma, in the test with U251 CNS and in the test with HCT-116 colon was over 100 µM in each case.
For `COc1ccccc1NC(=O)/C(Cc1nc2ccc([N+](=O)[O-])cc2[nH]c1=O)=N\NC(=O)C[N+](C)(C)C`, the TGI is over 100 µM with TK-10 renal; over 100 µM with MOLT-4 leukemia; over 100 µM with HCC-2998 colon; 94.5 µM in the test on CCRF-CEM leukemia; over 100 µM in the test on MDA-MB-435; 6.47 µM with SR leukemia. The TGI with COLO 205 colon, in the test on PC-3 prostate, in the test on NCI-H460 lung, in the test on OVCAR-3 ovarian, in the test on SN12C renal and in the test on HOP-92 NSCLC was over 100 µM throughout. Besides, the TGI with SK-OV-3 ovarian is over 100 µM; with HL-60(TB) leukemia, 93.1 µM; with LOX IMVI melanoma it was over 100 µM; in the test on U251 CNS it was over 100 µM; with HCT-116 colon it was over 100 µM.
For the compound `CCOC(=O)c1sc2c(c1OC(=O)c1cccs1)c(=O)n(-c1ccccc1)c(=S)n2-c1ccccc1`, the TGI in the test on TK-10 renal was over 100 µM; in the test on MOLT-4 leukemia, 40 µM; in the test on HCC-2998 colon, 36.5 µM; in the test with CCRF-CEM leukemia, 36 µM; in the test with MALME-3M melanoma it was 31.5 µM; in the test with MDA-MB-435, 29.2 µM. For the same compound, the TGI in the test on COLO 205 colon was found to be 35.6 µM; with A498 renal it was 18.9 µM; in the test on PC-3 prostate, 31.8 µM; with NCI-H460 lung it was 12.4 µM; in the test with OVCAR-3 ovarian, 60.6 µM; with SN12C renal it was 42 µM. The TGI in the test with HOP-92 NSCLC stood at 52.7 µM; with SK-OV-3 ovarian, 42.9 µM; with HL-60(TB) leukemia it was 48.4 µM; with LOX IMVI melanoma, 36.3 µM; in the test with U251 CNS it was 31.4 µM; in the test with HCT-116 colon, 22 µM.
Regarding `CC(C)[C@@H]1NC(=O)[C@H]2N=C(O[C@@H]2C)[C@@H]2CCCN2C(=O)[C@H](Cc2ccccc2)NC(=O)[C@@H]2CSC(=N2)[C@@H](Cc2ccccc2)NC(=O)[C@@H]2CSC1=N2`, the TGI in the test on TK-10 renal, in the test on MOLT-4 leukemia, in the test with HCC-2998 colon, in the test on CCRF-CEM leukemia, in the test on MALME-3M melanoma and in the test with MDA-MB-435 was over 50 µM in each case. The TGI in the test with COLO 205 colon is over 50 µM; in the test with PC-3 prostate, over 50 µM; in the test on OVCAR-3 ovarian it was over 50 µM; in the test on SN12C renal it was over 50 µM; in the test on SK-OV-3 ovarian it was over 50 µM; with HL-60(TB) leukemia, 41.3 µM. Besides, the TGI in the test on LOX IMVI melanoma, with U251 CNS and in the test on HCT-116 colon was over 50 µM in each case.
Take `CCOC(=O)c1c(N2CCCC2)nsc1Nc1ccccc1`: the TGI in the test on TK-10 renal, with MOLT-4 leukemia, with HCC-2998 colon, in the test on CCRF-CEM leukemia, in the test on MALME-3M melanoma and with SR leukemia was over 100 µM in each case. Besides, the TGI with COLO 205 colon, in the test with A498 renal, in the test with PC-3 prostate, with NCI-H460 lung, in the test on SN12C renal and with HOP-92 NSCLC was over 100 µM each time. Also, the TGI in the test with HL-60(TB) leukemia, in the test with LOX IMVI melanoma and in the test on HCT-116 colon was over 100 µM throughout.
Turning to `O=c1oc2ccccc2cc1/C=N/N1C(=S)N(c2ccccc2)C(=Nc2ccccc2)C1=Nc1ccccc1`, the TGI with TK-10 renal, in the test on MOLT-4 leukemia, in the test with HCC-2998 colon, in the test with MALME-3M melanoma, with MDA-MB-435 and with SR leukemia was over 100 µM each time. In addition, the TGI with COLO 205 colon, in the test with PC-3 prostate, in the test on NCI-H460 lung, in the test with OVCAR-3 ovarian, with SN12C renal and in the test on HOP-92 NSCLC was over 100 µM each time. Moreover, the TGI in the test with SK-OV-3 ovarian, with U251 CNS and in the test with HCT-116 colon was over 100 µM throughout.
Regarding `COc1cc2c(c(OC)c1OC)C(=O)[C@H](O)[C@H]2NC(N)=O`, the TGI in the test on TK-10 renal, in the test with MOLT-4 leukemia, with HCC-2998 colon, in the test with CCRF-CEM leukemia, in the test on MALME-3M melanoma and with MDA-MB-435 was over 100 µM in each case. In addition, the TGI in the test on COLO 205 colon, with PC-3 prostate, with NCI-H460 lung, in the test with OVCAR-3 ovarian, in the test on SN12C renal and in the test with HL-60(TB) leukemia was over 100 µM throughout. In addition, the TGI in the test with LOX IMVI melanoma, in the test with U251 CNS and with HCT-116 colon was over 100 µM each time.
Turning to `O=C(c1ccccc1)c1ccc(COc2ccc(C(c3c(O)c4ccccc4oc3=O)c3c(O)c4ccccc4oc3=O)cc2)cc1`, the TGI in the test with TK-10 renal is 32.8 µM; in the test on MOLT-4 leukemia it was 45.4 µM; in the test with HCC-2998 colon it was 33.5 µM; in the test with CCRF-CEM leukemia, 16.4 µM; in the test with MDA-MB-435 it was 46.8 µM; in the test on SR leukemia it was 63.9 µM. For the same compound, the TGI is 39.2 µM with COLO 205 colon; 34.9 µM with PC-3 prostate; 48.6 µM in the test with NCI-H460 lung; 34.5 µM in the test with OVCAR-3 ovarian; over 100 µM with SN12C renal; 35.4 µM in the test on SK-OV-3 ovarian. The TGI in the test on LOX IMVI melanoma is 56.5 µM; with U251 CNS, over 100 µM; in the test with HCT-116 colon, over 100 µM.

Values taken from PubChem BioAssay (NCI).
